One assay relates to HCT 116 (colon). The assay is described as follows: Human xenograft model, tumor growth inhibition. The assay is classed as in vivo, female athymic nude mice. The conditions noted are these: vehicle (Tw/MC) po qd × 14 + 5FU 50 mg/kg iv D1, 8, 15. On the technique in general: In xenograft studies the graft and the host belong to different species.
The test system of a further assay is H460 (lung). Put plainly: Human xenograft model, tumor growth inhibition. The assay is classed as in vivo, female athymic nude mice. Here is the method: To assess in vivo antitumor activity in human xenograft models, female athymic nude mice, 12 to 14 weeks of age, were implanted subcutaneously in the flank with human cancer cells. When the tumors reached approximately 100 mm^3 in size, the mice were pair-matched into various treatment groups. For oral administration, compounds were dissolved in a mixture of 0.5% methylcellulose and 0.1% Tween 80 and administered by gavage to the tumor-bearing mice. For i.v.andi.p..administration, compounds were dissolved in 0.9% NaCl and for the i.v. administration, the compound was administered via the tail vein.
Percent tumor growth inhibition (% TGI) was calculated as
% TGI=(Cday a−Tday a)/(Cday a−Cday 1)×100
Where C is the median tumor volume of the control group, T is the median tumor volume of the treatment group, and day a is the day of assessment.

This note sets out measurements from patent US20100098691A1, “COMBINATION OF BENZIMIDAZOLE ANTI-CANCER AGENT AND A SECOND ANTI-CANCER AGENT” (S'BIO PTE LTD, priority 2001, published 2010).

Experimental for HCT 116 (colon): The TGI assessment, the treatment-induced decreases in tumor volume on day 21 of various treatment groups were compared to controls. Percent tumor growth inhibition (% TGI) was calculated as

For the compound `O=c1[nH]cc(F)c(=O)[nH]1` [Compound 5FU, Fluorouracil], in the assay with HCT 116 (colon), the “% TGI at Day 15” value was 34%.
As for `CCCCc1nc2cc(/C=C/C(=O)NO)ccc2n1CCN(CC)CC` [Compound A8, 3-[2-Butyl-1-(2-diethylamino-ethyl)-1H-benzimidazol-5-yl]-N-hydroxy-acrylamide], the “% TGI at Day 15” value in the assay with H460 (lung) (A8 50 mg/kg po qd × 14 d) was found to be 33%; with H460 (lung) (A8 75 mg/kg po D1-3, D8-10), 14%.
As to `N.N.O=C([O-])C1(C(=O)[O-])CCC1.[Pt+2]` [carboplatin, Carboplatin], the “% TGI at Day 15” value in the assay on H460 (lung) (carboplatin 30 mg/kg ip D1, 8) is 29%.
For the compound `Nc1ccn([C@@H]2O[C@H](CO)[C@@H](O)C2(F)F)c(=O)n1` [gemcitabine, Gemcitabine], the “% TGI at Day 15” value in the assay on H460 (lung) (gemcitabine 80 mg/kg ip D1, 5, 9, 13 + vehicle po qd × 14 d) amounted to 36%.
